According to patent US20250041175A1, “COMPOSITION FOR SMOOTHING THE SKIN AND/OR THE LIPS” (L V M H RECHERCHE, priority 2021, published 2025):

Assay: Penetration of polyglycerols into the layers of the skin, 7T-MALDI-FT-ICR mass spectrometry imaging (MSI)
Type: in vitro ADME
Details: sections of human skin, preliminary study

Substance: polyglycerol-4
- depth of penetration at the surface layers of the skin (epidermis and superficial dermis): stationed in the superficial dermis
- penetration speed of polyglycerols: penetrates more quickly

Substance: polyglycerol-3
- depth of penetration at the surface layers of the skin (epidermis and superficial dermis): reaches the superficial dermis very quickly
- penetration speed of polyglycerols: penetrates rapidly

Substance: Polyglycerol-5
- depth of penetration at the surface layers of the skin (epidermis and superficial dermis): penetrate less deeply than polyglycerol-3 or polyglycerol-4
